Assay results from patent US11667652B2, “MCL1 inhibitors” (Gilead Sciences, Inc., priority 2019, dated 2023).

Tests used:
SKBR3 cells = experiment: SKBR3 Cell Viability Assay; assay type: cell-based; conditions: Homo sapiens, SK-BR-3, 72 hours, CellTiter Glo, read-out: MCL1 CV SKBR3 EC50
Method: SKBR3 Cell Viability Assay Materials
SKBR3 Cells (ATCC HTB-30) were obtained from ATCC (Manassas, Va.) and cultured in McCoy 5A's medium (ATCC 30-2007)+10% fetal bovine serum (SH30071.03, HyClone, Pittsburgh, Pa.) plus 1× Penicillin-Streptomycin L-glutamine (Corning 30-009-CI, Corning, N.Y.).
The cell viability assay was conducted in a 384-well tissue culture plate (Grenier 781086, Monroe, N.C.) in a total volume of 70 μL. Test compounds were prepared in 1,000×, serially diluted, and pre-spotted into 384-well tissue culture plate by Echo 555 Liquid Handler (Labcyte Inc., San Jose, Calif.). Seventy μL of 6,000 SKBR3 cells were dispensed into each well of the plate and incubated at 37° C. with 5% CO2 for 72 hours. At the end of incubation, 2× CellTiter Glo (CTG) reagents (1 part buffer with 2 parts substrate) (Promega, Madison, Wis.) were prepared, and the plate and the reagent were equilibrated to room temperature for 30 minutes. CTG reagent was added to each plate by Biomek FX at 20 μL/well with 5 times pipetting and mixing to induce cell lysis. Luminescence was read by Envision multimode reader (PerkinElmer). Percent inhibition was calculated as followed: % Inhibition=100%*(Well−Neg)/(Pos−Neg) Neg, negative control, DMSO Pos, positive control, 10 μM Puromycin

MCL1/Bim = MCL1/Bim (Homo sapiens (Human), UniProt Q07820); experiment: MCL1/Bim Binding AlphaLISA Assay; conditions: recombinant human 6xHis-MCL1 (171-327), biotinylated Bim peptide (51-76)
MCL1/Bim, sequence (Q07820 171-327): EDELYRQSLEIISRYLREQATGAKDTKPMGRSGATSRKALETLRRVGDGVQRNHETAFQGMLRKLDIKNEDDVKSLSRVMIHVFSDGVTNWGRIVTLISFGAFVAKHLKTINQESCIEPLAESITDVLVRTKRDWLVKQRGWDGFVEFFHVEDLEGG
Method: MCL1/Bim Binding AlphaLISA Assay.
Inhibition of the MCL1 and Bim interaction was measured in the following AlphaLISA assay.
Recombinant human MCL1 protein (C-terminal 6×His Tagged MCL1 containing residues 171-327) was generated at Gilead Sciences, Inc. (Foster City, Calif.). A biotinylated peptide derived from human Bim (residues 51-76) was purchased from CPC Scientific (Sunnyvale, Calif.). (CPC 834113). AlphaLISA anti-6His- acceptor beads (AL128R), AlphaScreen Streptavidin donor beads (6760002B), and Proxiplate-384 Plus (6008289) were purchased from PerkinElmer.
The AlphaLISA assay was performed in a 384-well Proxiplate in a total volume of […]. The reaction mixture contained 0.0625 nM 6×His-MCL1 (171-327), 0.0625 nM biotinylated-Bim peptide, 10 μg/mL AlphaLISA anti-6×His-AlphaLISA acceptor beads, 40 μg/mL AlphaScreen streptavidin donor beads, and serially diluted test compounds in the binding buffer (20 mM Hepes, pH 7.5 (Teknova H1035); 150 mM NaCl (Promega V4221); 0.002% Brij 35 (Thermo Scientific 20150); 1 mM Dithiothreitol (DTT) Solution (Affymetrix 70726); 0.01% BSA (BioLabs B9000S)). 1,000× test compounds were pre-spotted onto 384-well Proxiplate (Labcyte Echo) by Echo 555 Liquid Handler (Labcyte Inc., San Jose, Calif.) followed by incubation of 5 μL MCL1(171-327) for 1 hour. Then 5 μL Bim (51-76) was added and incubated for 2 hours. Five μL AlphaLISA anti-6His-AlphaLISA acceptor beads were then added for 1 hour followed by addition of 5 μL AlphaScreen streptavidin donor beads for 1 hour. The reaction plates were then read on an Envision multimode reader (PerkinElmer) using AlphaScreen settings. Percent inhibition was calculated as shown below: % Inhibition=100%*(Well−Neg)/(Pos−Neg) Neg: negative control, DMSO Pos: positive control, no MCL1 protein, no biotinylated-Bim peptide

| SMILES | EC50 (SKBR3 cells) [nM] | IC50 (MCL1/Bim) [nM] |
| --- | --- | --- |
| CO[C@H]1/C=C/C[C@H](C)C[S@@](=O)(Nc2nc(Cl)nc3cn(C)nc23)=NC(=O)c2ccc3c(c2)N(C[C@@H]2CC[C@H]21)C[C@@]1(CCCc2cc(Cl)ccc21)CO3 [Example 16] | 8140 |  |
| CO[C@H]1/C=C/[C@H](OC)[C@H](C)C[S@@](=O)(Nc2ncnc3nn(C)cc23)=NC(=O)c2ccc3c(c2)N(C[C@@H]2CC[C@H]21)C[C@@]1(CCCc2cc(Cl)ccc21)CO3 [Example 67] |  | 0.06 |
| COc1nc(N[S@@]2(=O)=NC(=O)c3ccc4c(c3)N(C[C@@H]3CC[C@H]3[C@@H](OC)/C=C/C[C@H](C)C2)C[C@@]2(CCCc3cc(Cl)ccc32)CO4)c2cn(C)nc2n1 [Example 10] | 47.6 | 0.084 |
| COc1nn(C)cc1C(=O)N[S@@]1(=O)=NC(=O)c2ccc3c(c2)N(C[C@@H]2CC[C@H]2[C@](O)(CC(=O)N2CC(N4CCOCC4)C2)/C=C/C[C@H](C)C1)C[C@@]1(CCCc2cc(Cl)ccc21)CO3 [Example 107] |  | 0.036 |
| CO[C@H]1/C=C/C[C@H](C)C[S@@](=O)(Nc2nccc3nn(C)cc23)=NC(=O)c2ccc3c(c2)N(C[C@@H]2CC[C@H]21)C[C@@]1(CCCc2cc(Cl)ccc21)CO3 [Example 7] |  | 1.74 |
| COc1nn(C)cc1C(=O)N[S@@]1(=O)=NC(=O)c2ccc3c(c2)N(C[C@@H]2CC[C@H]2[C@@H](OC(=O)c2cn(C)nc2OC)/C=C/[C@H](O)[C@H](C)[C@H]1C)C[C@@]1(CCCc2cc(Cl)ccc21)CO3 [Example 89] |  | 0.53 |
| CCn1cc(C(=O)N[S@@]2(=O)=NC(=O)c3ccc4c(n3)N(C[C@@H]3CC[C@H]3[C@@H](OC)/C=C/C[C@H](C)[C@H]2C)C[C@@]2(CCCc3cc(Cl)ccc32)CO4)cn1 [Example 199] |  | 0.17 |
| COc1nn(C)cc1C(=O)N[S@@]1(=O)=NC(=O)c2ccc3c(c2)N(C[C@@H]2CC[C@H]2[C@@H](OC)[C@H](O)[C@@H](O)C[C@H](C)C1)C[C@@]1(CCCc2cc(Cl)ccc21)CO3 [Example 125] |  | 0.051 |
| CO[C@H]1/C=C/C[C@H](C)C[S@@](=O)(Nc2ncnc3nn(C)cc23)=NC(=O)c2ccc3c(n2)N(C[C@@H]2CC[C@H]21)C[C@@]1(CCCc2cc(Cl)ccc21)CO3 [Example 194] |  | 0.1 |
| COc1nn(C)cc1C(=O)N[S@@]1(=O)=NC(=O)c2ccc3c(c2)N(C[C@@H]2CC[C@H]2[C@@H](OCCN2CCN(C)CC2)/C=C/C[C@H](C)C1)C[C@@]1(CCCc2cc(Cl)ccc21)CO3 [Example 59] |  | 0.076 |
| COCCn1cc2c(N[S@@]3(=O)=NC(=O)c4ccc5c(c4)N(C[C@@H]4CC[C@H]4[C@@H](OC)/C=C/C[C@H](C)C3)C[C@@]3(CCCc4cc(Cl)ccc43)CO5)ncnc2n1 [Example 14] |  | 0.965 |
| CO[C@H]1/C=C/C[C@H](C)[C@@H](C)[S@@](=O)(NC(=O)c2cnn(C)c2)=NC(=O)c2ccc3c(c2)N(C[C@@H]2CC[C@H]21)C[C@]1(CO3)C[C@@H]2C[C@@H]2c2cc(Cl)ccc21 [Example 171] |  | 0.176 |
| COc1nn(C)cc1C(=O)N[S@@]1(=O)=NC(=O)c2ccc3c(c2)N(C[C@@H]2CC[C@H]2[C@@](C)(O)/C=C/C[C@H](C)C1)C[C@@]1(CCCc2cc(Cl)ccc21)CO3 [Example 94] |  | 0.084 |
| COc1nn(C)cc1C(=O)N[S@@]1(=O)=NC(=O)c2ccc3c(c2)N(C[C@@H]2CC[C@H]2[C@@H](OC(=O)c2cn(C)nc2OC)CC[C@H](O)[C@H](C)[C@H]1C)C[C@@]1(CCCc2cc(Cl)ccc21)CO3 [Example 90] |  | 2.19 |
| CO[C@H]1/C=C/C[C@H](C)C[S@@](=O)(Nc2nc(O)nc3nn(C)cc23)=NC(=O)c2ccc3c(c2)N(C[C@@H]2CC[C@H]21)C[C@@]1(CCCc2cc(Cl)ccc21)CO3 [Example 11] |  | 0.183 |
| COc1nn(C)cc1C(=O)N[S@@]1(=O)=NC(=O)c2ccc3c(c2)N(C[C@@H]2CC[C@H]2[C@@H](O)C#CC[C@H](C)C1)C[C@@]1(CCCc2cc(Cl)ccc21)CO3 [Example 35] |  | 0.043 |
| COc1nn(C)cc1C(=O)N[S@@]1(=O)=NC(=O)c2ccc3c(c2)N(C[C@@H]2CC[C@H]2[C@H](OC)C#CC[C@H](C)C1)C[C@@]1(CCCc2cc(Cl)ccc21)CO3 [Example 38] |  | 0.11 |
| CO[C@H]1/C=C/CCC[S@@](=O)(NC(=O)c2cnn(C)c2)=NC(=O)c2ccc3c(c2)N(C[C@@H]2CC[C@H]21)C[C@]1(CO3)SCCc2cc(Cl)ccc21 [Example 182] |  | 0.06 |
| CO[C@H]1/C=C/C[C@H](C)[C@@H](C)[S@@](=O)(NC(=O)c2cc3n(c2)CCOC3)=NC(=O)c2ccc3c(n2)N(C[C@@H]2CC[C@H]21)C[C@@]1(CCCc2cc(Cl)ccc21)CO3 [Example 202] |  | 0.2 |
| CO[C@H]1CCC[C@H](C)C[S@@](=O)(Nc2ncnc3nn(C)cc23)=NC(=O)c2ccc3c(c2)N(C[C@@H]2CC[C@H]21)C[C@@]1(CCCc2cc(Cl)ccc21)CO3 [Example 28] |  | 0.12 |
| COc1nn(C)cc1C(=O)N[S@@]1(=O)=NC(=O)c2ccc3c(c2)N(C[C@@H]2CC[C@H]2[C@H](OC)[C@H](O)[C@@H](O)C[C@H](C)C1)C[C@@]1(CCCc2cc(Cl)ccc21)CO3 [Example 126] |  | 0.13 |

The next lines start with the values.

| EC50 (SKBR3 cells) [nM] | IC50 (MCL1/Bim) [nM] | SMILES |
| --- | --- | --- |
| 92.2 | 0.057 | COc1nn(C)cc1C(=O)N[S@@]1(=O)=NC(=O)c2ccc3c(c2)N(C[C@@H]2CC[C@H]2[C@@H](OC)C[C@H]2CCO[C@@H]2[C@H](C)C1)C[C@@]1(CCCc2cc(Cl)ccc21)CO3 [Example 135] |
|  | 0.088 | COC[C@H]1C/C=C/[C@H](OC)[C@@H]2CC[C@H]2CN2C[C@@]3(CCCc4cc(Cl)ccc43)COc3ccc(cc32)C(=O)N=[S@@](=O)(NC(=O)COC2CCOCC2)C1 [Example 45] |
|  | 0.089 | COc1nn(C)cc1C(=O)N[S@@]1(=O)=NC(=O)c2ccc3c(c2)N(C[C@@H]2CC[C@H]2[C@@H](OCC(O)CO)/C=C/C[C@H](C)C1)C[C@@]1(CCCc2cc(Cl)ccc21)CO3 (mixture of isomers) [Example 57] |
|  | 0.562 | COc1nn(C)cc1C(=O)N[S@@]1(=O)=NC(=O)c2ccc3c(c2)N(C[C@@H]2CC[C@H]2[C@@H](OC)C/C=C\[C@H](C)C1)C[C@@]1(CCCc2cc(Cl)ccc21)CO3 (mixture of isomers) [Example 128] |
|  | 0.09 | CO[C@H]1/C=C/C[C@H](C)C[S@@](=O)(NC(=O)NC2CC2)=NC(=O)c2ccc3c(c2)N(C[C@@H]2CC[C@H]21)C[C@]1(CO3)SCCc2cc(Cl)ccc21 [Example 177] |
|  | 0.957 | CO[C@H]1/C=C/C[C@H](C)C[S@@](=O)(Nc2ncccn2)=NC(=O)c2ccc3c(c2)N(C[C@@H]2CC[C@H]21)C[C@@]1(CCCc2cc(Cl)ccc21)CO3 [Example 3] |
|  | 2.12 | CO[C@H]1/C=C/C[C@H](C)C[S@@](=O)(Nc2cccnn2)=NC(=O)c2ccc3c(c2)N(C[C@@H]2CC[C@H]21)C[C@@]1(CCCc2cc(Cl)ccc21)CO3 [Example 13] |
|  | 0.202 | CCCO[C@H]1/C=C/[C@H](OC)[C@@H]2CC[C@H]2CN2C[C@@]3(CCCc4cc(Cl)ccc43)COc3ccc(cc32)C(=O)N=[S@](=O)(NC(=O)c2cn(C)nc2OC)C[C@H]1C [Example 144] |
|  | 0.648 | COC[C@@H]1CC=C[C@@H](OC)[C@@H]2CC[C@H]2CN2C[C@@]3(CCCc4cc(Cl)ccc43)COc3ccc(cc32)C(=O)N=[S@](=O)(NC(=O)COC2CCOCC2)C1 [Example 44] |
|  | 1.89 | CO[C@H]1/C=C/C[C@H](C)C[S@@](=O)(Nc2ncc(C#N)cn2)=NC(=O)c2ccc3c(c2)N(C[C@@H]2CC[C@H]21)C[C@@]1(CCCc2cc(Cl)ccc21)CO3 [Example 2] |
|  | 0.059 | COc1nn(C)cc1C(=O)N[S@@]1(=O)=NC(=O)c2ccc3c(c2)N(C[C@@H]2CC[C@H]2[C@@H](OC)/C=C/[C@H](F)[C@H](C)C1)C[C@@]1(CCCc2cc(Cl)ccc21)CO3 [Example 127] |
